Measured values: patent US20090023737A1, “Imidazo-Pyridazines, Triazolo-Pyridazines and Related Benzodiazepine Receptor Ligands” (NEUROGEN CORPORATION, priority 2004, published 2009)
pKd: −log10 of the molar value.

Target: benzodiazepine site of the GABAA receptor
Experiment: Radioligand binding assay, 3H-Ro15-1788 (Flumazenil), purified rat cortical membranes
Conditions: previously determined; used in the Cheng-Prusoff equation; read-out: binding dissociation constant (Kd) of 3H-Ro15-1788

## CCOC(=O)c1ncn2c1CN(C)C(=O)c1cc(F)ccc1-2 [^3H-Ro15-1788]
  pKd: 9.00
